Assay results published in patent US20210348204A1, “Systems, Methods, And Compositions For The Production of Water-Soluble Terpenes Derived From Cannabis Plants” (Trait Biosciences, Inc., priority 2018, published 2021).

Columns and labels:
cannabinoid receptor = conditions: cited from earlier work
platelet aggregation = conditions: cited from earlier work
onychomycosis = conditions: comparable to ciclopiroxolamine and sulcanazole; cited from earlier work
[1] = via inhalation; cited from earlier work
5-HTEA = biological target: T1, 5-HTEA (Mus musculus, UniProt Q64264); conditions: via 5-HTEA; cited from earlier work
T1 sequence (Q64264 1-421): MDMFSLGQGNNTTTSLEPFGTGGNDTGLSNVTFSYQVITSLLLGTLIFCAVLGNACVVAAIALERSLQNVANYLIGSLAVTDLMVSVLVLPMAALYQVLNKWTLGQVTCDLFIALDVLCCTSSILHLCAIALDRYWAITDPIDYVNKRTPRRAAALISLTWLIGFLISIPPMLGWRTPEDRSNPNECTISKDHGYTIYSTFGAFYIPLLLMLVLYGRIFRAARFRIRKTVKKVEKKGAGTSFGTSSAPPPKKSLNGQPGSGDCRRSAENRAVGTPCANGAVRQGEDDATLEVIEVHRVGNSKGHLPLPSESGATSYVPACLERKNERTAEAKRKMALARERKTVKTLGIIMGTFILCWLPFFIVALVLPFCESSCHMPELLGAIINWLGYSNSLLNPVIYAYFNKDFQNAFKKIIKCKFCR

breast cancer cells = conditions: cited from earlier work
acne bacteria = conditions: cited from earlier work
Dermatophytes = conditions: cited from earlier work
[2] = in vivo; cited from earlier work
[3] = in vivo; cited from earlier work; remark: listed apart in the source
[4] = on inhalation in mice; cited from earlier work
adenosine Aza = adenosine Aza (Mus musculus, UniProt Q60613); conditions: via adenosine Aza; cited from earlier work
Sequence of adenosine Aza (Q60613 whole entry): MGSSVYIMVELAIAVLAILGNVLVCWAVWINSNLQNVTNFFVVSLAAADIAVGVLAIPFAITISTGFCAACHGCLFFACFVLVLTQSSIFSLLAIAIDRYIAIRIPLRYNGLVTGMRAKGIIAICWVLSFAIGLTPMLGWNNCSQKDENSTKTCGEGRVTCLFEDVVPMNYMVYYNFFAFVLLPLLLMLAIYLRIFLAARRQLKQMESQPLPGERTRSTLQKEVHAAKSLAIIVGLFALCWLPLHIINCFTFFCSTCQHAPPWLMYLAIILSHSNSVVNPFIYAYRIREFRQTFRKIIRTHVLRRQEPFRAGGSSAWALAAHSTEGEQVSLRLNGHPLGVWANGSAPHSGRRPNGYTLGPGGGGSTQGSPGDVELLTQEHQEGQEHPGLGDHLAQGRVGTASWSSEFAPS

glutamate = conditions: in vivo; cited from earlier work
Leishmania = conditions: cited from earlier work
[5] = system: Pichia pastoris yeast cells; assay: Yeast cell growth after feeding transgenic Pichia cultures with individual terpenes; conditions: terpene 100 μg/mL final concentration, cultures harvested 2 days post-feeding
PGE-3 = conditions: via PGE-3; cited from earlier work
[6] = in humans; cited from earlier work
Acetylcholinesterase = Acetylcholinesterase (Homo sapiens, UniProt P22303); conditions: aiding memory; cited from earlier work
Sequence of Acetylcholinesterase (P22303 32-614): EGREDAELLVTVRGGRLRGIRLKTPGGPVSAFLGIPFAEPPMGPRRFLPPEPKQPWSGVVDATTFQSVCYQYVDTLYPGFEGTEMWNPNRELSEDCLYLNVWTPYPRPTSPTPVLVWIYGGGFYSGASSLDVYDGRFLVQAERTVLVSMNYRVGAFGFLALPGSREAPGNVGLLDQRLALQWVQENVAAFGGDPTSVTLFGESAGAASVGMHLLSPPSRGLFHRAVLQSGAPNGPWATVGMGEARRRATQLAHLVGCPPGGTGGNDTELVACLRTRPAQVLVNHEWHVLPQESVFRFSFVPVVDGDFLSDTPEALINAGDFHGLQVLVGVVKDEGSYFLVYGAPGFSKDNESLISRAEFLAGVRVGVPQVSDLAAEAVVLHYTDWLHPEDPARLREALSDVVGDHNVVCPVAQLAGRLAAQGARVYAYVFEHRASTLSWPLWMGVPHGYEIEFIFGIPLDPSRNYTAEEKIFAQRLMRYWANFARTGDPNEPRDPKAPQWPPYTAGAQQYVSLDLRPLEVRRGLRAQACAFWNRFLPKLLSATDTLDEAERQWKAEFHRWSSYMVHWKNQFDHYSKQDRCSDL

PGE-1 = conditions: via PGE-1, comparable phenylbutazone; cited from earlier work
[7] = in vivo; cited from earlier work; remark: listed apart in the source
malaria = conditions: cited from earlier work
CB2 = CB2 (Homo sapiens, UniProt P34972); conditions: cited from earlier work
Sequence of CB2 (P34972 whole entry): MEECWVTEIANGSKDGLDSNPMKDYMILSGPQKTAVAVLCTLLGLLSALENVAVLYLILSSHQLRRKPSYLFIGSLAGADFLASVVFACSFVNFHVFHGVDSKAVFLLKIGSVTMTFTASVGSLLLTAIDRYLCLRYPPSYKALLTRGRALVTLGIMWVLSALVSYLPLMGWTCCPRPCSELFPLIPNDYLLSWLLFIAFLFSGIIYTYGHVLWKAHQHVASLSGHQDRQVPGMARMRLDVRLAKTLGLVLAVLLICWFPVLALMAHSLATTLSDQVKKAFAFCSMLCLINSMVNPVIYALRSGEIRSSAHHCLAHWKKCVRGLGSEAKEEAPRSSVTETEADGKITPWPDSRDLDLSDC

PGE-2 = conditions: via PGE-2; cited from earlier work
[8] = antagonized by naloxone; cited from earlier work
[9] = in vivo; cited from earlier work; remark: listed apart in the source

**Q.** With C=C(C)[C@@H]1CCC(C)=C[C@H]1c1c(O)cc(CCCCC)cc1O [CBD, cannabidiol] as the compound, how does the “Affinity for the cannabinoid receptor (in words)” value (cannabinoid receptor) read?
**A.** The value was “do not have significant affinity”.

**Q.** With C=C1CC[C@H]2O[C@]2(C)CC[C@@H]2[C@@H]1CC2(C)C [Caryophyllene Oxide] as the compound, how does the “Effect on platelet aggregation” value (platelet aggregation) read?
**A.** The value was “Decreases platelet aggregation”.

**Q.** And the “Antifungal activity in onychomycosis” value (onychomycosis)?
**A.** Its value is “Antifungal in onychomycosis comparable to ciclopiroxolamine and sulcanazole”.

**Q.** Which AD/immunostimulant activity [1] does the source give for C=C(C)[C@H]1CC=C(C)CC1 [Limonene] here?
**A.** Its AD/immunostimulant activity is “Potent AD/immunostimulant via inhalation”.

**Q.** What about the Anxiolytic activity (5-HTEA) of the same compound?
**A.** The Anxiolytic activity was “Anxielytic”.

**Q.** What about the “Apoptosis of breast cancer cells” value (breast cancer cells) of the same compound?
**A.** Its value is “Apoptosis of breast cancer cells (Vigushin”.

**Q.** What about the “Activity against acne bacteria” value (acne bacteria) of the same compound?
**A.** The value was “Active against acne bacteria (Kim et al., 2008)”.

**Q.** And the Activity against dermatophytes (Dermatophytes)?
**A.** The Activity against dermatophytes was “Dermatophytes (Sanguinetti et al., 2007;”.

**Q.** And the “Activity in gastro-aesophageal reflux” value [2]?
**A.** The value was “Gastro-aesophageal reflux (Harris, 2010)”.

**Q.** Which Anti-anxiety activity [3] does the source give for C=CC(C)(O)CCC=C(C)C (stereo not drawn) [Linalool] here?
**A.** Its Anti-anxiety activity is “Anti-anxiety”.

**Q.** And the Sedative activity [4]?
**A.** Its Sedative activity is “Sedative on inhalation in mice”.

**Q.** What about the Analgesic activity (adenosine Aza) of the same compound?
**A.** Its Analgesic activity is “Analgesic via adenosine Aza (Peana et al.,”.

**Q.** And the Anticonvulsant/anti-glutamate activity (glutamate)?
**A.** Its Anticonvulsant/anti-glutamate activity is “Anticonvulsant/anti-glutamate (Elisabetsky”.

**Q.** What about the Anti-leishmanial activity (Leishmania) of the same compound?
**A.** The Anti-leishmanial activity was “Potent anti-leshmarial (do Socorro et al.,”.

**Q.** For CC(C)=CCC[C@](C)(O)[C@@H]1CC=C(C)CC1 [alpha-bisabolol], which “Effect on yeast cell growth rates” value [5] is on record?
**A.** The value was “no observed negative effect”.

**Q.** With CC(C)=CCCC(C)CCO (stereo not drawn) [citronellol] as the compound, how does the “Effect on yeast cell growth rates” value [5] read?
**A.** Its value is “no observed negative effect”.

**Q.** Which “Effect on yeast cell growth rates” value [5] does the source give for CC(C)=CCC/C(C)=C\CO [nerol] here?
**A.** Its value is “no observed negative effect”.

**Q.** Which Anti-inflammatory activity (PGE-3) does the source give for CC1=CCC2CC1C2(C)C (stereo not drawn) [α-Pinene] here?
**A.** The Anti-inflammatory activity was “Anti-inflammatory via PGE-3”.

**Q.** What about the Bronchodilatory activity [6] of the same compound?
**A.** Its Bronchodilatory activity is “Bronchodilatory in humans”.

**Q.** And the Acetylcholinesterase inhibition (Acetylcholinesterase)?
**A.** Its Acetylcholinesterase inhibition is “Acetylcholinesterase inhibitor, aiding memory”.

**Q.** Which “A1 (anti-inflammatory) activity” value (PGE-1) does the source give for C=C1CC/C=C(\C)CC[C@@H]2[C@@H]1CC2(C)C [β-Caryophyllene] here?
**A.** The value was “A1 via PGE-1 comparable phenylbutazone”.

**Q.** And the Gastric cytoprotective activity [7]?
**A.** Its Gastric cytoprotective activity is “Gastric cytoprotective”.

**Q.** What about the Anti-malarial activity (malaria) of the same compound?
**A.** Its Anti-malarial activity is “Anti-malarial”.

**Q.** What about the “Selective CB2 agonist (concentration given)” value (CB2) of the same compound?
**A.** The value was 100 nM.

**Q.** With C=CC(=C)CCC=C(C)C [β-Myrcene] as the compound, how does the Blocking of inflammation (PGE-2) read?
**A.** The Blocking of inflammation was “Blocks inflammation via PGE-2”.

**Q.** And the Analgesic activity [8]?
**A.** The Analgesic activity was “Analgesic, antagonized by naloxone”.

**Q.** And the “Sedating, muscle relaxant, hypnotic activity” value [9]?
**A.** Its value is “Sedating, muscle relaxant, hypnotic (da Vale”.
